Experimental data from patent US20250127937A1, “FAP INHIBITOR” (UNIVERSITÄT HEIDELBERG, priority 2018, published 2025).

How the values were obtained:
[1] = tested on: HT-1080-FAP tumor xenografts; assay: Organ distribution ex vivo in HT-1080-FAP tumor bearing nude mice; set-up: species or system mouse
Procedure: For in vivo experiments, 8 week old BALB/c nu/nu mice (Charles River) were subcutaneously inoculated into the right trunk with 5×10^6 with HT-1080-FAP, Capan-2 or SK-LMS-1 cells, respectively. When the size of the tumor reached approximately 1 cm^3, the radiolabeled compound was injected via the tail vein (˜10 MBq for small-animal PET imaging; ˜1 MBq for organ distribution). PET imaging was performed up to 140 min after intravenous injection of 1 MBq of Ga-68 labeled compound per mouse using the Inveon PET small-animal PET scanner (Siemens). Images were reconstructed iteratively using the 3D-OSEM+MAP method and were converted to standardized uptake value (SUV) images. Quantification was done using a ROI technique and expressed as SUV mean. For organ distribution of Lu-177 labeled compound (approx. […] per mouse), the animals (n=3 for each time point) were sacrificed after indicated time points (from 30 min to 24 h). The distributed radioactivity was measured in all dissected organs and in blood using a γ-counter (Cobra Autogamma, Packard). The values are expressed as percentage of injected dose per gram of tissue (% ID/g).

[2] = Preliminary dosimetry estimate in patients; assay type: in vivo, human
[3] = Lu-177 labeled, 1 h after i.v., HT-1080-FAP, mean ± SD, n = 3

With `N#C[C@@H]1CCCN1C(=O)CNC(=O)c1ccnc2ccc(OCCCN3CCN(C(=O)CN4CCN(CC(=O)O)CCN(CC(=O)O)CCN(CC(=O)O)CC4)CC3)cc12` [FAPI-02] the “highest enrichment within the FAP-expressing tumor” value ([1]; 177Lu labeled, after 1 h) was 4.5 % ID/g, the “Tumor uptake 1 h” value ([1]; HT-1080-FAP tumor bearing nude mice, 1 h, mean ± SD, n = 3) was 4.5 ± 0.82 % ID/g and the “Tumor uptake 4 h” value ([1]; HT-1080-FAP tumor bearing nude mice, 4 h, mean ± SD, n = 3) was 4.0 ± 0.56 % ID/g. For the same molecule, the “Tumor uptake 24 h” value ([1]; HT-1080-FAP tumor bearing nude mice, 24 h, mean ± SD, n = 3) was 1.12 ± 0.13 % ID/g, the Blood uptake [1, 3] was 1.20 ± 0.178 % ID/g and the Brain uptake [1, 3] was 0.06 ± 0.006 % ID/g. For the same molecule, the Heart uptake [1, 3] was 0.56 ± 0.085 % ID/g, the Intestines uptake [1, 3] was 0.31 ± 0.046 % ID/g and the Kidneys uptake [1, 3] was 1.60 ± 0.075 % ID/g. It also gave a Liver uptake [1, 3] of 0.45 ± 0.074 % ID/g, a Lungs uptake [1, 3] of 1.02 ± 0.152 % ID/g and a Muscle uptake [1, 3] of 1.17 ± 0.332 % ID/g. For the same molecule, the Spleen uptake [1, 3] was 0.38 ± 0.051 % ID/g, the Tumor uptake [1, 3] was 4.51 ± 0.816 % ID/g and the “equivalent dose of an exam” value ([2]; 200 MBq Ga-68) was 3-4 mSv. For the same molecule, the effective dose ([2]; calculated with IDAC1/ICRP60) was 1.82E-02 mSv/MBq, the effective dose ([2]; calculated with IDAC2/ICRP103) was 1.79E-02 mSv/MBq and the effective dose ([2]; calculated with OLINDA) was 1.80E-02 mSv/MBq.
